Experimental data reported in paper PMC6434189, “Peperomin E and its orally bioavailable analog induce oxidative stress-mediated apoptosis of acute myeloid leukemia progenitor cells by targeting thioredoxin reductase” (Redox Biology, 2019).

Tests used:
[1] = tested on: AML CD34+ cells; assay: Release study of DMAPE in vitro, AML CD34+ cells (UFLC-MS/MS); assay type: in vitro ADME, human; details: 10 μM DMAPE, 24 h
Procedure: (§1) 1 × 10^5 cells (including sorted CD34^+ KG-1a cells and NBM cells) were seeded at 48-well plates (Corning, New York, USA) in the IMDM-based serum-free media for 1 h. The cells were then incubated with 10 μM DMAPE at 37 °C in the 5% CO2 incubator for 0, 12 or 24 h. The culture supernatant was collected by centrifugation at 3000 rpm for 10 min and evaporated to dryness at 30 °C using a CentriVap vacuum centrifugal concentrator. The resulting residue was reconstituted in 100 μL methanol, vortexed and centrifuged at 12000 rpm for 10 min. A 2 μL aliquot of the supernatant was injected for UFLC-MS/MS analysis (UFLC-MS/MS analysis method same as the pharmacokinetic study of DMAPE, see Additional method in Supplementary Materials).

[2] = tested on: NBM CD34+ (including hBMSCs) cells; assay: Release study of DMAPE in vitro, NBM CD34+ cells (UFLC-MS/MS); assay type: in vitro ADME, human; details: 10 μM DMAPE, 24 h
Procedure: as §1

[3] = target: T1, NADPH-reduced TrxR1 (Homo sapiens, UniProt Q16881); assay: Bio-layer interferometry (BLI) binding assay, TrxR1
T1 construct: purchased Abcam ab204206
T1 sequence (Q16881 1-499 isoform Q16881-5): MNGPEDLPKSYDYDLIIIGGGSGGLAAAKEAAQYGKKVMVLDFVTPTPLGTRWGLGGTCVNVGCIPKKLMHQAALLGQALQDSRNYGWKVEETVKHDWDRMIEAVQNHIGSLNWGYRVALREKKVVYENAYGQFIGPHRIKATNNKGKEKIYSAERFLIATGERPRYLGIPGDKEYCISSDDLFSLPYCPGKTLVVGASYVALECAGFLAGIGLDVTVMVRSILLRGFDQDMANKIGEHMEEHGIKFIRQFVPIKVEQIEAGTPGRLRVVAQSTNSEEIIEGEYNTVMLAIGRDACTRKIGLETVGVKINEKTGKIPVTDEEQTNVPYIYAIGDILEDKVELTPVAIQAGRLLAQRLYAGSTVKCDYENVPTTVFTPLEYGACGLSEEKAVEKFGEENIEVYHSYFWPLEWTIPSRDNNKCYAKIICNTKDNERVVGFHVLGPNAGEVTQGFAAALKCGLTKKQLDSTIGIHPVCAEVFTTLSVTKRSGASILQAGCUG
Procedure: (§2) The binding kinetics of PepE or PepA to purified recombinant proteins were determined using BLI on an Octet RED 96 system (ForteBio, Shanghai, China) following the manufacturer's protocol. All interaction analyses were performed at 25 °C in PBS with 0.2% DMSO. Purified recombinant proteins (0.9 μM, the TrxR1 full length and TrxR1 protein fragment were pre-reduced by 400 μM of NADPH before test) were pre-labeled with biotin using […] (Abcam) following the manufacturer's instruction. Loading of the Dip and Read Super Streptavidin (SSA) Biosensors (ForteBio) were conducted by exposing biotinylated proteins to biosensor tips for 2 h. The 96-well microplates used in the Octet were filled with 200 μL sample or buffer per well and agitated at 1000 rpm. The loaded biosensors were washed in buffer for 600 s and transferred to wells containing PepE at concentrations of 0.625, 1.25, 2.5, 5, and 10 μM or PepA at concentrations of 1.25, 2.5, 5, 10 and 20 μM, respectively, in the buffer. […] Reference measurements were conducted using the buffer instead of PepE (or PepA). A parallel set of SA unloaded biosensors was prepared to act as a control. The sample-sensorgrams were corrected by subtracting the double reference curve. Kinetic parameters (Kon and Kdis) and affinity (KD) were determined from a global fit to a 1:1 binding model of the data between proteins and PepE using Octet software (ForteBio).

[4] = target: T2, GPX1 (Homo sapiens, UniProt P07203); assay: BLI binding assay, GPX1
T2 construct: purchased Abcam
T2 sequence (P07203 1-203): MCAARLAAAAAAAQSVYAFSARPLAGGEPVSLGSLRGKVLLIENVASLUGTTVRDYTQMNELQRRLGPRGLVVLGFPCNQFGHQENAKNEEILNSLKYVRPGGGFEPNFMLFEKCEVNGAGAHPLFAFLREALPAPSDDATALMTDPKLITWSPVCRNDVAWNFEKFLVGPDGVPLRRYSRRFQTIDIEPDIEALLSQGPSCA
Procedure: as §2, with “The sample-sensorgrams were corrected by subtracting the double reference curve.” left out

[5] = target: T3, GSS (Homo sapiens, UniProt P48637); assay: BLI binding assay, GSS
T3 construct: purchased Abcam
T3 sequence (P48637 1-474): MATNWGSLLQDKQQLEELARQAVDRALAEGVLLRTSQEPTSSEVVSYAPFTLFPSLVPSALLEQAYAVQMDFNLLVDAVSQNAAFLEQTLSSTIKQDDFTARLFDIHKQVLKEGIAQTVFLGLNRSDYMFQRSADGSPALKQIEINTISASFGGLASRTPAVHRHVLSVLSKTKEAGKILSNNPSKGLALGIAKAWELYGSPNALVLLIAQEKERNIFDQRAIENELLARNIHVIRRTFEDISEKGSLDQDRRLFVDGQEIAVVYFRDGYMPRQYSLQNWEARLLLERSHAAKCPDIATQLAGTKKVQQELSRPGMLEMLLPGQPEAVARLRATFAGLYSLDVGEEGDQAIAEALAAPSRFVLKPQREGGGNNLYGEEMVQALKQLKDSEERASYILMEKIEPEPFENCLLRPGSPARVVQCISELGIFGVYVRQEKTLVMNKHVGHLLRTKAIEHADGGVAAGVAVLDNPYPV
Procedure: as §2

[6] = target: T4, recombinant human TrxR1 (Homo sapiens, UniProt Q16881); assay: NADPH oxidative activity assay; assay type: biochemical; details: 5 μM, TrxR1 0.2 μM
T4 construct: purchased Abcam ab204206
T4 sequence (Q16881 1-499 isoform Q16881-5): T1 sequence (Q16881 1-499 isoform Q16881-5)
Procedure: The NADPH oxidative activity by TrxR1 in the presence of PepE was performed according to the previous reports. Briefly, the recombinant human TrxR1 protein (0.2 μM) was incubated with either 5 μM of PepE or 5 μM of DNCB at room temperature in assay buffer (50 mM Tris-HCl, 1 mM EDTA, pH = 7.5), same amount of DMSO was used as negative control. NADPH was then added (final concentration was set at 200 μM) and the absorbance was monitored at 340 nm for 30 min using the SpectraMax i3x microplate reader (Molecular Devices), the molar extinction coefficient was set as 6200 M^−1cm^−1. The linear decrease in NADPH absorbance was used for calculating NADPH consumption rate and expressed as NADPH μM^−1min^−1enzyme μM^−1.

| SMILES | DMAPE in culture with AML CD34+ cells [1] | DMAPE remained in the culture media [2] | kon [3] [M⁻¹ s⁻¹] | Kd ([3]; NADPH-reduced TrxR1 0.9 μM, 25 °C) [µM] | Kd ([3]; Table S3) [µM] | koff ([3]; read-out: Kdis) [s⁻¹] | Kd [4] [µM] | kon [4] [M⁻¹ s⁻¹] | Kd [5] [µM] | kon [5] [M⁻¹ s⁻¹] | koff ([5]; read-out: Kdis) [s⁻¹] | consumption of NADPH by TrxR1 relative to the control [6] [fold] |
| --- | --- | --- | --- | --- | --- | --- | --- | --- | --- | --- | --- | --- |
| COc1cc(C(c2cc(OC)c3c(c2)OCO3)[C@@H]2COC(=O)[C@H]2CN(C)CCO)cc2c1OCO2 [DMAPE, (2S,3S)-6-Methyl (hydroxyethyl) amino-2,6-dihydropeperomin E] | could not be detected | about half |  |  |  |  |  |  |  |  |  |  |
| C=C1C(=O)OC[C@H]1C(c1cc(OC)c2c(c1)OCO2)c1cc(OC)c2c(c1)OCO2 [PepE, Peperomin E] |  |  | 12400 | 0.34 | 0.341 | 0.00423 | 534 | 6400 | 272 | 2740 | 0.745 | ~7 |
